Test results taken from patent US5443986A, “Enzymatic analysis using substrates that yield fluorescent precipitates” (Molecular Probes, Inc., priority 1993, dated 1995).

Key:
[1] = Critical concentration (Mc) for precipitation of the enzymatic product; assay type: physicochemical; conditions: product of hydrolysis by excess alkaline phosphatase, 0.1M TRIS pH 10.3
Description: 2D) Critical concentration: Various concentrations of 2-(4'-methoxy-2'-phosphoryloxyphenyl)quinazolinone (3e) were reacted with 50 μL of excess alkaline phosphatase in 200 μL solution of 0.1M TRIS≥pH 10.3 containing 50 mM NaCl, 10 mM MgCl2 and 0.1 mM ZnCl2. The resulting precipitate and fluorescence were measured in a CytoFluor fluorescence plate reader (Millipore) with excitation at 360 nm, emission at 460 nm using sensitivity setting 3.
3). Determination of the critical concentration and pH dependence for the precipitation. The critical concentration (Mc, in units of mmoles) and the pH dependence (pKa) for precipitation are both important parameters for judging the precipitation properties of the enzymatic products obtained from the subject substrates. Below the critical concentration the product will not be detected as a fluorescent precipitate. Obviously these two parameters contribute to the precipitation in a correlated way. As a simple approach, one may define the critical concentration as the concentration necessary for the precipitation at a high pH where all of the phenol group is ionized. Similarly, acidification by lowering the pH results in precipitation at a concentration below the critical concentration that is obtained at high pH to an extent that is related to the pKa of the phenolic group. It is a characteristic of the preferred substrates that only the product precipitate is fluorescent. In this case the precipitate is quantitated by its fluorescence which results in a correlation of the fluorescence with the degree of precipitation.
To obtain the critical concentration for one product the phosphatase substrate (1e) (200 μL) in a 96-well plate is added to 0.1M TRIS, pH 10.3, containing 50 mM NaCl, 10 mM MgCl2 and 0.1 mM ZnCl2 to yield a final concentration of 0.1 to 10 mM. 50 μL of a 1 mg/mL solution of alkaline phosphatase is then added. The fluorescence development is complete after 5 minutes as measured in using a CytoFluor™ 2300 fluorescence plate reader (Millipore, Bedford, Mass.). A concentration showing appreciable fluorescence is determined as the critical concentration.

alkaline phosphatase [2] = target: T1, alkaline phosphatase (Bos taurus, UniProt P19111); assay type: biochemical; set-up: mature GPI-type homodimer; conditions: 0.1M TRIS pH 10.3, 50 mM NaCl, 10 mM MgCl2, 0.1 mM ZnCl2; double-reciprocal plot
T1 sequence (P19111 20-506): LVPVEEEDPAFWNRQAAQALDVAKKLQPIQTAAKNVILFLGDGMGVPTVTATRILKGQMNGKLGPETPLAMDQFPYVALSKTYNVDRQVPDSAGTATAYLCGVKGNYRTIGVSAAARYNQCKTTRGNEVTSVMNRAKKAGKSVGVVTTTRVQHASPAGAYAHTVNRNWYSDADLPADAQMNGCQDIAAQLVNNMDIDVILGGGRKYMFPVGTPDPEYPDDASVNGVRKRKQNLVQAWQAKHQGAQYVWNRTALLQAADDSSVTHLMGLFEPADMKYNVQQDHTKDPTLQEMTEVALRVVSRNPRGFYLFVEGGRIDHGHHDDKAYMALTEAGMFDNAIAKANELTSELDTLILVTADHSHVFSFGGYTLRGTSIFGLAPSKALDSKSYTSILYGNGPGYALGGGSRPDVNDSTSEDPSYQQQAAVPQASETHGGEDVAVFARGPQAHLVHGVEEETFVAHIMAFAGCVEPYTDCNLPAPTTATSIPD
Description: As compared with other synthetic substrates, the fluorogenic precipitating substrates described in this invention normally have high enzymatic turnover rates and moderate affinities for the enzymes. Turnover rates of the substrates can be determined as in Example 10 and expressed as micromoles of product per minute per milligram protein (k2, in units of μmol·min^-1 ·mg^-1). The affinity of the substrate is determined by its dissociation constant, KM, in millimolar units. The enzymes can bind to and catalyze conversion of the soluble substrates into detectable reaction products that are apparently less soluble and will precipitate in aqueous solutions. The preferred detectable reaction products are fluorescent precipitates. The precipitation, however, and thus fluorescence, depends on the reaction product concentration or the initial substrate concentration used, as well as the ionization state of the product's phenol group. There are two parameters determining the precipitation, i.e. critical concentration (Mc) and pH dependence (pKa). A method for determination of these parameters is given in Example 11. Table 10 gives the relevant parameters for the enzymatic reaction and precipitation of quinazolinone-based alkaline phosphatase substrates.
4). Kinetic assay of some of the substrates. The specific activity (k2, in a unit of micromole per minute per milligram protein) and Michaelis constant (KM, in a unit of millimole) for hydrolysis of the substrates by the enzyme are listed in Table 10. All of the specific enzymatic reactions are made in the following buffers:
For alkaline phosphatase: 0.1M TRIS pH 10.3 containing 50 mM NaCl, 10 mM MgCl2 and 0.1 mM ZnCl2.
Because the kinetic assay involves variable amounts of precipitate with variable light scattering, measurement in the fluorometer as described above cannot be used here. Instead, a fluorescence plate reader with front-face measurement geometry such as the CytoFluor™ 2300 (Millipore, Bedford, Mass.) is preferred for quantitating the precipitate. The following protocol illustrates the kinetic assay.
4.1 ). In a 96-well plate, pipette 200 μL of a phosphatase substrate in the alkaline phosphatase reaction buffer with a final concentration of 2 to 6 mM, then add 50 μL 1 mg/mL alkaline phosphatase. […] Fluorescence of the precipitate is measured in the CytoFluor with appropriate sensitivity and excitation and emission settings as have been determined with the fluorometer. The fluorescence signal versus the amount of the precipitate is then established for each substrate.
4.2). […] Read the fluorescence of the resulting precipitate after 10 minutes reaction time and calculate the precipitate formation rate per minute by use of the determined fluorescence signal versus the amount of the precipitate. […]

[3] = target: β-glucuronidase from E. coli (Escherichia coli, UniProt P05804); assay: Detection of enzymatic activity in chromatographic fractions, glucuronidase peak; assay type: biochemical; conditions: 5 μL of 5 mg/mL substrate added to 25 μL fraction, pH 7.0
Sequence of β-glucuronidase from E. coli (P05804 whole entry): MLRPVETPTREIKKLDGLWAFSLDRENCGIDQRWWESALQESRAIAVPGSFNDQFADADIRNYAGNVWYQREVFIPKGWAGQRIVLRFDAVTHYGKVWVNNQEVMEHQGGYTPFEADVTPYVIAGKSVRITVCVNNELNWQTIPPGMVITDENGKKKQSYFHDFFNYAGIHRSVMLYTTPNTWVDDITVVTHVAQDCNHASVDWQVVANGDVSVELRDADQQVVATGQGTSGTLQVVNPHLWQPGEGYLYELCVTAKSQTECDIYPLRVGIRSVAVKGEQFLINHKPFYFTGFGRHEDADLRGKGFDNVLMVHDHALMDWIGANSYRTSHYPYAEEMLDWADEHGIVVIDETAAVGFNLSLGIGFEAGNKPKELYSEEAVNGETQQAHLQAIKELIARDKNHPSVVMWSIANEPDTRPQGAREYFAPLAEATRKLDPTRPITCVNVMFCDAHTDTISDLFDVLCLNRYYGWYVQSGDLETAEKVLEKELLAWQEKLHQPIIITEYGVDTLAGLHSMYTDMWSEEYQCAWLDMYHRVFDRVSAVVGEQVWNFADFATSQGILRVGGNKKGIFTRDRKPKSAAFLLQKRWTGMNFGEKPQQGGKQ
Description: (§1) β-galactosidase from E. coli (MW 540,000, approximately 1 mg) and β-glucuronidase from E. coli (MW 280,000, approximately 1 mg) are dissolved in 25 μL of 0.1M phosphate, pH 7,0 containing 0.11M 2-mercaptoethanol and 1 mM MgCl2 and chromatographed on a 1×35 cm column of BioGel A 1.5M equilibrated with the same buffer. Detection of the protein absorption at 280 nm is used to detect isolated protein fractions. […] To 25 μL aliquots of each fraction, is separately added 5 μL of a 5 mg/mL aqueous solution of 2-(5'-methoxy-2'-galactopyranosyl)phenyl-4-(3H)-quinazolone (3h) or 2-(2-O-β-D-glucopyranosiduronic acid)-4-(3H)-quinazolone (4h).

[4] = target: β-galactosidase from E. coli (Escherichia coli, UniProt P00722); assay: Detection of enzymatic activity in chromatographic fractions, galactosidase peak; assay type: biochemical; conditions: 5 μL of 5 mg/mL substrate added to 25 μL fraction, pH 7.0
Sequence of β-galactosidase from E. coli (P00722 2-1024): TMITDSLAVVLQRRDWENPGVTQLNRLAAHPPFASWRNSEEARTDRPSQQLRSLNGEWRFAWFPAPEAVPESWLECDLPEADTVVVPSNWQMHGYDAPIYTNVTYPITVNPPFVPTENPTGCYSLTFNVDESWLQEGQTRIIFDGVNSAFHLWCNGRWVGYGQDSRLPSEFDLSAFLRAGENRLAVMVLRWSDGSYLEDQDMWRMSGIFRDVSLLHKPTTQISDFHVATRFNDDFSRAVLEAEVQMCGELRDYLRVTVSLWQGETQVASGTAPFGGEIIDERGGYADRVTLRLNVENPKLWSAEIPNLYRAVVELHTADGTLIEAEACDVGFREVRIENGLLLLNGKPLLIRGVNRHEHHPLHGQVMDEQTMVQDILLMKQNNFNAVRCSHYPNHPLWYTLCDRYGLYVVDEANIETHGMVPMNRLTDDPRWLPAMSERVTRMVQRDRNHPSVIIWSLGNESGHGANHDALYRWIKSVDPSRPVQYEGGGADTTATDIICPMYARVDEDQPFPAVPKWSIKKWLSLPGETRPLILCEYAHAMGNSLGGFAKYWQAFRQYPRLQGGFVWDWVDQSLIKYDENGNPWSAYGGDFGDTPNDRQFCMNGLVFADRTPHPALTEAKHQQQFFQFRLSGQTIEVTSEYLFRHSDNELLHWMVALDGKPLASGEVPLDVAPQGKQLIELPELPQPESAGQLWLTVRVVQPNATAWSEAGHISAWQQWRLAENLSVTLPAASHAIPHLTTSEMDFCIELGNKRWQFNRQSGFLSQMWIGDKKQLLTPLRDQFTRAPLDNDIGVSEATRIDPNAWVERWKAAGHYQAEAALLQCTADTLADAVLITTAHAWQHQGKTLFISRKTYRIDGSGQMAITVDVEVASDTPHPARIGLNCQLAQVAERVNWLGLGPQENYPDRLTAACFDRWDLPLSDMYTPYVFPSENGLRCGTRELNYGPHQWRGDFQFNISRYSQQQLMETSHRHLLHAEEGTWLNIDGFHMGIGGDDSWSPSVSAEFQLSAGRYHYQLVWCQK
Description: as §1

[5] = target: Alkaline phosphatase conjugated goat anti-rabbit antibodies (Bos taurus, UniProt P19111); assay: Western blot immunodetection of subunit II of bovine heart cytochrome c oxidase with a phosphatase substrate; assay type: biochemical
Sequence of Alkaline phosphatase conjugated goat anti-rabbit antibodies (P19111 20-506 limits assumed): as the sequence (P19111 20-506) above
Description: 1.1. Cytochrome c oxidase from the bovine heart mitochondrial inner membrane is highly purified according to the method of Capaldi and Hayashi, FEBS LETT 26, 4229-4238 (1972).
1.2. 50 μl of pure cytochrome c oxidase (20 mg/ml) is dissolved in a dissociation buffer to a final concentration of 1 mg/ml for electrophoresis.
1.3. An 18% acrylamide gel containing 6M urea, 0.1% SDS is used for gel electrophoresis according to a procedure published by Zhang, Lindorfer and Capaldi, BIOCHEMISTRY, 27, 1389-1394 (1988). 15 μg of protein is loaded onto each lane. The subunits of cytochrome c oxidase are separated during electrophoresis (there are 13 different subunits in bovine cytochrome c oxidase).
2.3. Protein samples in both B and C, resolved in SDS-gel electrophoresis, are semi-dry transferred onto a nitrocellulose membrane following a standard electrophoretic elution procedure published by Harlow and Lane, ANTIBODIES, A LABORATORY MANUAL, Cold Spring Harbor Lab (1988).
3.1. The nitrocellulose membrane is incubated with a polyclonal antibody that is specific for Subunit II of Cytochrome C oxidase (final antibody concentration: 20 μg/ml) at room temperature for 12 hours with agitation.
3.2. The membrane is incubated with the enzyme-labeled secondary antibody at room temperature for 1 hour with agitation. Alkaline phosphatase conjugated goat anti-rabbit antibodies are used with 1:3000 dilution in TTBS buffer containing 1% nonfat milk.
3.4. Membrane B is incubated in the phosphatase substrate BCIP/NBT (BioRad), while C is incubated with the fluorogenic, phosphatase substrate 1e.

alkaline phosphatase [6] = target: T1, alkaline phosphatase; assay: Fluorescence and light scattering on hydrolysis of the substrate (FIG. 2B, 2C); assay type: biochemical; set-up: mature GPI-type homodimer; conditions: 10 μg/mL alkaline phosphatase, 20 seconds
Description: 2B) Coexistence of fluorescence and precipitation: 5 mM 2-(4'-methoxy-2'-phosphoryloxyphenyl)quinazolinone (3e), in 0.1M TRIS pH 10.3 containing 50 mM NaCl, 10 mM MgCl2 and 0.1 mM ZnCl2, yields 210 units of fluorescence by action of 10 μg/mL alkaline phosphatase in 20 seconds. The fluorescence can be eliminated by addition of 0.6% Triton X-100 as a result of precipitate dissolution.
2C) Light-scattering increase as a result of precipitation: 2 mM 2-(4'-methoxy-2'-phosphoryloxyphenyl)quinazolinone (3e) scattering increases from 450 units to beyond the detection limit of 1000 units in 20 seconds by action of 10 μg/mL alkaline phosphatase, showing rapid formation of a precipitate. The enzymatic reaction was in 0.1M TRIS pH 10.3 containing 50 mM NaCl, 10 mM MgCl2 and 0.1 mM ZnCl2. The scattering measurement was made in a Perkin-Elmer LS-50 fluorometer with 5 nm slits and a coincident excitation and emission wavelength of 420 nm.

SMILES | Mc (critical concentration for precipitation) [1] | k2 (specific activity, turnover rate) (alkaline phosphatase [2]) | other results
O=c1[nH]c(-c2ccccc2OP(=O)(O)O)nc2ccc([N+](=O)[O-])cc12 [6e, 2-phenyl-6-nitro] | 1.2 mM | 150.66 µmol/min/mg | 
COc1ccc(OP(=O)(O)O)c(-c2nc3ccccc3c(=O)[nH]2)c1 [2e, 2-(5'-methoxyphenyl)] | 0.8 mM |  | 
O=C(O)[C@H]1O[C@@H](Oc2ccccc2-c2nc3ccccc3c(=O)[nH]2)[C@H](O)[C@@H](O)[C@@H]1O [4h, 2-(2-O-β-D-glucopyranosiduronic acid)-4-(3H)-quinazolone] |  |  | fluorescent precipitate formation in fractions of the second peak (β-glucuronidase) [3]: visible formation of a green fluorescent precipitate occurs; fluorescent precipitate formation in fractions of the first peak (β-galactosidase) [4]: No cross reactivity is observed
COc1ccc(O[C@@H]2O[C@H](CO)[C@H](O)[C@H](O)[C@H]2O)c(-c2nc3ccccc3c(=O)[nH]2)c1 [3h, 2-(5'-methoxy-2'-galactopyranosyl)phenyl-4-(3H)-quinazolone] |  |  | fluorescent precipitate formation in fractions of the second peak (β-glucuronidase) [3]: No cross reactivity is observed; fluorescent precipitate formation in fractions of the first peak (β-galactosidase) [4]: Visible yellow fluorescent precipitate formation occurs
O=c1[nH]c(-c2ccccc2OP(=O)(O)O)nc2ccccc12 [1e, 2-phenyl] | 1.5 mM | 188.81 µmol/min/mg | persistence of the stain on the membrane ([5]; membrane kept in a dry Petri dish): still fluorescent after 3 days; incubation time after which the immunoreactive band is visualized ([5]; nitrocellulose membrane): 30 min; staining of other transferred bands ([5]; nitrocellulose membrane): No other transferred bands are stained
COc1cc(OC)c(OP(=O)(O)O)c(-c2nc3ccccc3c(=O)[nH]2)c1 [2-(3',5'-dimethoxyphenyl)] | 0.3 mM | 215.60 µmol/min/mg | 
COc1ccc(OP(=O)(O)O)c(-c2nc3ccc(Cl)cc3c(=O)[nH]2)c1 [5e, 2-(5'-methoxyphenyl)-6-chloro] | 1.2 mM |  | 
COc1ccc(-c2nc3ccccc3c(=O)[nH]2)c(OP(=O)(O)O)c1 [3e, 2-(4'-methoxy-2'-phosphoryloxyphenyl)quinazolinone] | 2.5 mM |  | light scattering after action of alkaline phosphatase (alkaline phosphatase [6]; 2 mM substrate, starts at 450 units, detection limit 1000 units, 420 nm): > 1000 units; fluorescence yielded by action of alkaline phosphatase (alkaline phosphatase [6]; 5 mM substrate, 0.1M TRIS pH 10.3): 210 units
O=c1[nH]c(-c2cc(Cl)ccc2OP(=O)(O)O)nc2ccccc12 [9e, 2-(5'-chlorophenyl)] | 0.4 mM |  | 
